Drawing on patent US9120749B2, “Quinoline derivatives and MELK inhibitors containing the same” (ONCOTHERAPY SCIENCE, INC., priority 2010, dated 2015), this text covers IC50 for 16 compounds.

One test concerns the target MELK (Homo sapiens, UniProt Q14680). The experiment in a line: Kinase assay: MELK activity, phosphorylation of FITC-labeled histone H3 peptide measured by IMAP fluorescence polarization. The format is biochemical. As to conditions: read-out: IC50 (μM) (kinase assay). The procedure, abridged:
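Kinase reactions ran with or without test compound (final DMSO 1%) on a fluorescein-tagged H3 peptide. Progressive binding solution was added to terminate them. After a half-hour room-temperature incubation, polarization was measured.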

The next test relates to A549 cells. The experiment in a line: Cell-based assay: anti-proliferative activity, Cell Counting Kit-8, 72 hours (A549). Particulars: Homo sapiens, A549, 72 h, 72 hours. A digest of the protocol: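 A549 cells seeded in 96-well plates and exposed to candidate inhibitors for 72 hours. Growth measured with Cell Counting Kit-8; IC50 values calculated from the dose response.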

The test system of the next test is HT-1197 cells. The experiment in a line: Cell-based assay: anti-proliferative activity, Cell Counting Kit-8, 72 hours (HT-1197, negative control without MELK expression). As to conditions: HT1197 cells (negative control, no MELK expression), 72 hours. The procedure, abridged: (§1)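 First, lysates underwent western blotting with anti-MELK antibody to establish expression. Next, cells went into 96-well plates. Then candidate inhibitors were added. Finally, viability was determined by CCK-8 at 72 h and IC50 computed.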

The subject of the next test is DU4475 cells. The experiment in a line: Cell-based assay: anti-proliferative activity, Cell Counting Kit-8, 72 hours (DU4475). Particulars: Homo sapiens, DU-4475, 72 h.
Another test has as its system T47D cells. The experiment in a line: Cell-based assay: anti-proliferative activity, Cell Counting Kit-8, 72 hours (T47D). Particulars: Homo sapiens, T47D, 72 h. A digest of the protocol:
as §1

MELK, sequence (Q14680 whole entry, looked up): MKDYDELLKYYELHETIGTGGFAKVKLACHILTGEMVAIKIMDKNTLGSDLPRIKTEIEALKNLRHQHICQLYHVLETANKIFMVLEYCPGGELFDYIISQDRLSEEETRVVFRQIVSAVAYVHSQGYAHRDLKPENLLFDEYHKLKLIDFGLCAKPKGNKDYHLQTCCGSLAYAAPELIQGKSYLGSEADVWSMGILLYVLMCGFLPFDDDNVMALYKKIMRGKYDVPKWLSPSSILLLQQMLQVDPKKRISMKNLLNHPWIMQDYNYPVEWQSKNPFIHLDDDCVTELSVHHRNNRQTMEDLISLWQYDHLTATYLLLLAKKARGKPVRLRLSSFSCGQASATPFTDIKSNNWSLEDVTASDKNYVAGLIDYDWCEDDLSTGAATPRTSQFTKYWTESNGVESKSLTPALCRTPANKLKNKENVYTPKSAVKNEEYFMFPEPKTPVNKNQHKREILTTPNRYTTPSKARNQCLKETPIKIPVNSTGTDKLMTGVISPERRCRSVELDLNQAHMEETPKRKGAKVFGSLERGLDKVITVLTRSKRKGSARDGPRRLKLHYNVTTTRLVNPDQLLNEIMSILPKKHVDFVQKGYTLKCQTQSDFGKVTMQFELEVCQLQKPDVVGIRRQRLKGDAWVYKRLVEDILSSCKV

On to `CC(=O)c1cnc2ccc(-c3cc(Cl)c(O)c(Cl)c3)cc2c1N[C@@H]1CC[C@@H](CN(C)C)C1` [Example 718, 1-(6-(3,5-dichloro-4-hydroxyphenyl)-4-((1R,3R)-3-((dimethylamino)methyl)cyclopentylamino)quinolin-3-yl)ethanone], for which the IC50 is 0.0055 µM at MELK; 0.44 µM with A549 cells; 2 µM with HT-1197 cells (Homo sapiens, HT1197, 72 h); 0.19 µM in the test on DU4475 cells; 0.36 µM in the test on T47D cells.
`O=C(c1cnc2ccc(-c3cc(F)c(O)c(Cl)c3)cc2c1NC1CCNCC1)C1CC1` [Example 719, (6-(3-chloro-5-fluoro-4-hydroxyphenyl)-4-(piperidin-4-ylamino)quinolin-3-yl)(cyclopropyl)methanone]: the IC50 came to 0.0092 µM at MELK; 0.69 µM in the test on A549 cells; 10 µM with HT-1197 cells (Homo sapiens, HT1197, 72 h); 0.17 µM in the test with DU4475 cells; 0.32 µM in the test with T47D cells.
Take `CC(=O)c1cnc2ccc(-c3cc(Cl)c(O)c(Cl)c3)cc2c1Nc1ccc2c(c1)CCC2N(C)C` (centres unmarked) [Example 720, 1-(6-(3,5-dichloro-4-hydroxyphenyl)-4-((1-(dimethylamino)-2,3-dihydro-1H-inden-5-yl)amino)quinolin-3-yl)ethanone]: the IC50 on MELK came out at 0.0033 µM; with A549 cells, 0.063 µM; with HT-1197 cells (Homo sapiens, HT1197, 72 h), 0.38 µM; with DU4475 cells, 0.032 µM; in the test with T47D cells, 0.059 µM.
Turning to `CC(=O)c1cnc2ccc(-c3cc(F)c(O)c(F)c3)cc2c1N[C@H]1CC[C@H](CN(C)C)CC1` [Example 721], the IC50 on MELK was found to be 0.035 µM; with A549 cells, 0.32 µM; with HT-1197 cells (Homo sapiens, HT1197, 72 h) it was 3.4 µM; in the test with DU4475 cells it was 0.22 µM; in the test with T47D cells, 0.15 µM.
As for `COc1cc(-c2ccc3ncc(C(=O)C4CC4)c(Nc4ccc(OCCN)nc4)c3c2)cc(Cl)c1O` [Example 722, (4-(6-(2-aminoethoxy)pyridin-3-ylamino)-6-(3-chloro-4-hydroxy-5-methoxyphenyl)quinolin-3-yl)(cyclopropyl)methanone], the IC50 on MELK came to 0.0043 µM; in the test on A549 cells, 0.32 µM; in the test on HT-1197 cells (Homo sapiens, HT1197, 72 h), 2.3 µM; in the test with DU4475 cells it was 0.19 µM; with T47D cells it was 0.19 µM.
For `NCCOc1ccc(Nc2c(C(=O)C3CC3)cnc3ccc(-c4cc(Cl)c(O)c(Cl)c4)cc23)cn1` [Example 723, (4-(6-(2-Aminoethoxy)pyridin-3-ylamino)-6-(3,5-dichloro-4-hydroxyphenyl)quinolin-3-yl)(cyclopropyl)methanone], the IC50 was determined as 0.0019 µM on MELK; 0.23 µM in the test with A549 cells; 2.1 µM in the test on HT-1197 cells (Homo sapiens, HT1197, 72 h); 0.028 µM with DU4475 cells; 0.099 µM in the test on T47D cells.
With `NCCOc1ccc(Nc2c(C(=O)C3CC3)cnc3ccc(-c4cc(F)c(O)c(Cl)c4)cc23)cn1` [Example 724, (4-(6-(2-Aminoethoxy)pyridin-3-ylamino)-6-(3-chloro-5-fluoro-4-hydroxyphenyl)quinolin-3-yl)(cyclopropyl)methanone], the IC50 is 0.0055 µM on MELK; 0.23 µM in the test with A549 cells; 2.8 µM in the test on HT-1197 cells (Homo sapiens, HT1197, 72 h); 0.035 µM in the test on DU4475 cells; 0.07 µM in the test with T47D cells.
Turning to `NC1CCCN(c2ccc(Nc3c(C(=O)C4CC4)cnc4ccc(-c5cc(F)c(O)c(F)c5)cc34)cn2)C1` (centres unmarked) [Example 725, (4-(6-(3-Aminopiperidin-1-yl)pyridin-3-ylamino)-6-(3,5-difluoro-4-hydroxyphenyl)quinolin-3-yl)(cyclopropyl)methanone], the IC50 was 0.003 µM on MELK; 0.012 µM in the test on A549 cells; 0.11 µM in the test with HT-1197 cells (Homo sapiens, HT1197, 72 h); 0.01 µM with DU4475 cells; 0.0078 µM in the test on T47D cells.
Regarding `O=C(c1cnc2ccc(-c3cc(Cl)c(O)c(Cl)c3)cc2c1NC1CCNCC1)C1CC1` [Example 726, cyclopropyl(6-(3,5-dichloro-4-hydroxypheny)-4-(piperidin-4-ylamino)quinolin-3-yl)methanone], the IC50 at MELK came out at 0.0057 µM; in the test with A549 cells it was 0.52 µM; in the test on HT-1197 cells (Homo sapiens, HT1197, 72 h), 2.4 µM; in the test with DU4475 cells, 0.14 µM; with T47D cells it was 0.56 µM.
`COc1cc(-c2ccc3ncc(C(=O)C4CC4)c(NC4CCNCC4)c3c2)cc(Cl)c1O` [Example 727, (6-(3-chloro-4-hydroxy-5-methoxyphenyl)-4-(piperidin-4-ylamino)quinolin-3-yl)(cyclopropyl)methanone]: the IC50 on MELK was 0.0034 µM; with A549 cells, 0.19 µM; with HT-1197 cells (Homo sapiens, HT1197, 72 h), 1.1 µM; with DU4475 cells, 0.14 µM; with T47D cells it was 0.37 µM.
`CC(=O)c1cnc2ccc(-c3cc(Cl)c(O)c(Cl)c3)cc2c1N[C@@H]1CC[C@@H](CN2CCN(C)CC2)C1` [Example 728, 1-(6-(3,5-dichloro-4-hydroxyphenyl)-4-((1R,3R)-3-((4-methylpiperazin-1-yl)methyl)cyclopentylamino)quinolin-3-yl)ethanone]: the IC50 worked out at 0.0057 µM on MELK; 0.85 µM in the test on A549 cells; 5.7 µM in the test on HT-1197 cells (Homo sapiens, HT1197, 72 h); 0.48 µM in the test on DU4475 cells; 0.83 µM with T47D cells.
With `CC(=O)c1cnc2ccc(-c3cc(Cl)c(O)c(Cl)c3)cc2c1Nc1cccc(CCN(C)C)c1` [Example 729, 1-{6-(3,5-Dichloro-4-hydroxyphenyl)-4-[3-(2-(dimethylamino)ethyl)phenylamino]quinolin-3-yl}ethanone], the IC50 is 0.0022 µM at MELK; 0.2 µM in the test on A549 cells; 10 µM in the test with HT-1197 cells (Homo sapiens, HT1197, 72 h); 0.1 µM in the test with DU4475 cells; 0.52 µM in the test with T47D cells.
`COc1cc(-c2ccc3ncc(C(C)=O)c(Nc4cccc(CCN(C)C)c4)c3c2)cc(Cl)c1O` [Example 730, 1-(6-(3-chloro-4-hydroxy-5-methoxyphenyl)-4-(3-(2-(dimethylamino)ethyl)phenylamino)quinolin-3-yl)ethanone]: the IC50 on MELK was 0.0026 µM; in the test with A549 cells, 0.82 µM; in the test on HT-1197 cells (Homo sapiens, HT1197, 72 h), 8 µM; in the test on DU4475 cells, 0.69 µM; in the test on T47D cells, 2.1 µM.
Take `CC(=O)c1cnc2ccc(-c3cc(F)c(O)c(Cl)c3)cc2c1N[C@H]1CC[C@H](CN2CCCC2)CC1` [Example 731]: the IC50 on MELK was 0.0047 µM; in the test with A549 cells, 0.17 µM; in the test on HT-1197 cells (Homo sapiens, HT1197, 72 h), 1.3 µM; in the test with DU4475 cells, 0.13 µM; with T47D cells, 0.11 µM.
As for `CC(=O)c1cnc2ccc(-c3cc(F)c(O)c(Cl)c3)cc2c1Nc1ccc(N2CCCC(N)C2)nc1` (centres unmarked) [Example 732, 1-(4-(6-(3-aminopiperidin-1-yl)pyridin-3-ylamino)-6-(3-chloro-5-fluoro-4-hydroxyphenyl)quinolin-3-yl)ethanone], the IC50 on MELK is 0.0017 µM; with A549 cells, 0.0094 µM; in the test on HT-1197 cells, 0.18 µM; with DU4475 cells it was 0.0099 µM; in the test with T47D cells, 0.0056 µM.
For the compound `COc1cc(-c2ccc3ncc(C(C)=O)c(N[C@H]4CC[C@H](CN5CCCC5)CC4)c3c2)cc(Cl)c1O` [Example 734], the IC50 amounted to 0.0016 µM at MELK; 0.25 µM in the test on A549 cells; 6.4 µM with HT-1197 cells (Homo sapiens, HT1197, 72 h); 0.36 µM in the test on DU4475 cells; 0.51 µM in the test on T47D cells.
